This note sets out measurements from US11338004B2, “Composition for preventing or treating cranial nerve disease comprising fomes fomentarius extract, fraction thereof, or compound isolated therefrom as active ingredient” (priority 2015, dated 2022).

For experiment [1], the system named is TNF-α. The experiment can be described thus: TNF-α in LPS-treated BV2 cells. The experiment is classed as cell-based, mouse. Further details: unit not given here. As to the method: (§1) A mouse BV2 cell line was stored and maintained in a humidified incubator at 37° C. under a 5% CO2 condition using a DMEM culture medium supplemented with 10% FBS, 100 U/ml of penicillin and 100 μg/ml of streptomycin, was trypsinized, and was subcultured.
(§2) BV2 cells were placed in a 6-well plate at 7.5×10^5 cells/well, and stabilized at 37° C. and 5.0% CO2 for 12 hours. After that, LPS and the Fomes fomentarius CHCl3 fractions, the nonadecanone (2-Nonadecanone) or the docosenol (cis-13-Docosenol) compounds were placed according to groups and were incubated for 1 hour. The cell culture was collected and used for cytokine analysis. All the cell culture was removed, and then 1 ml of dPBS was dispensed to each well to wash and remove the wells. 200 μl of the lysis buffer was dispensed per well and the cells attached to the bottom of the well were removed with a cell scriper, and then were slowly mixed and reacted for […] on ice at 4° C. The cells were removed with a scriper again and all the lysis solution was collected. The collected lysis solution was centrifuged at 15,000 rpm for 15 minutes at 4° C. so that only the supernatant was collected. In order to plot standard curves for protein quantification, a standard BSA solution ([…]) and a dilution were prepared in which bradford solution and D.W. were diluted with 4:1. After the bradford dilution was dispensed in each 200 μl to 96-well, the standard BSA solution and the cell lysis supernatant were dispersed in a volume of 10 μl per well, and then they were mixed by pipetting. After 10 minutes, the protein was quantitated by measuring the absorbance at 595 nm in a reader. The subsequent procedures were carried out in the same manner as in the quantitative analysis of the protein of Example 3-3.

Experiment [2] is described as follows: DPPH radical scavenging activity. The procedure:
The present experiment used the property that the hydrazyl of diphenylpicrylhydrazyl (DPPH) used in the present experiment has a property of easily accepting a hydrogen atom since the nitrogen atom is unstable, so as to react with the antioxidant material to accept the hydrogen atom to lose its own orthochromatism.
First, in order to measure DPPH radical scavenging activity of the Fomes fomentarius fraction, 1.9 ml of 0.2 mM DPPH solution (99.5% ethanol) was added to 0.1 ml of solutions (control: 99.5% ethanol) in which the concentrated dried material of each Fomes fomentarius substance was prepared at 7 concentrations of 10, 20, 40, 80, 160, 320 and 640 μg/ml, respectively. The mixture was shaken with a vortex mixer for 10 seconds and then incubated at 37° C. for 30 minutes. Then, the absorbance was measured at 517 nm using a spectrophotometer.
As a positive control drug, L-ascorbic acid was prepared at […] of 10, 20, 40, 80, 160, 320, and 640 μg/mL (99.5% ethanol).
The present inventors measured DPPH radicals scavenging activity in the same manner as in Example <2-2> above using nonadecanone (2-nonadecanone) and docosenol (cis-13-Docosenol) compounds found in the above and Fomes fomentarius CHCl3 fraction of the present disclosure.
First, in order to measure DPPH radical scavenging activity of the Acer tegmentosum maxim extract, 1.9 ml of 0.2 mM DPPH solution (99.5% ethanol) was added to 0.1 ml of solutions (control: 99.5% ethanol) in which the concentrated dried material of each Acer tegmentosum maxim material was prepared at 7 concentrations of 10, 20, 40, 80, 160, 320 and 640 μg/ml, respectively. The mixture was shaken with a vortex mixer for 10 seconds and then incubated at 37° C. for 30 minutes. Then, the absorbance was measured at 517 nm using a spectrophotometer.
As a positive control, L-ascorbic acid was prepared at […] of 10, 20, 40, 80, 160, 320, and 640 μg/mL (99.5% ethanol).
First, in order to measure DPPH radical scavenging activity of the berchemia berchemiaefolia extract, 1.9 ml of 0.2 mM DPPH solution (99.5% ethanol) was added to 0.1 ml of solutions (control: 99.5% ethanol) in which the concentrated dried material of each berchemia berchemiaefolia material was prepared at 7 concentrations of 10, 20, 40, 80, 160, 320 and 640 μg/ml, respectively. The mixture was shaken with a vortex mixer for 10 seconds and then incubated at 37° C. for 30 minutes. Then, the absorbance was measured at 517 nm using a spectrophotometer.
First, in order to measure DPPH radical scavenging activity of the Lithospermum erythrorhizon extract, 1.9 ml of 0.2 mM DPPH solution (99.5% ethanol) was added to 0.1 ml of solutions (control: 99.5% ethanol) in which the concentrated dried material of each Lithospermum erythrorhizon material was prepared at 7 concentrations of 10, 20, 40, 80, 160, 320 and 640 μg/ml, respectively. The mixture was shaken with a vortex mixer for 10 seconds and then incubated at 37° C. for 30 minutes. Then, the absorbance was measured at 517 nm using a spectrophotometer.
(Loss of DPPH colour is used to gauge radical scavenging.)

Experiment [3] has as its system NO production in mouse BV2 cell line. As to the kind of experiment: NO (nitrite) production in LPS-treated BV2 cells, Griess reagent. The experiment is classed as cell-based. As to the method:
as §1
In the present disclosure, the amount of nitrite produced was measured to determine the anti-inflammatory activity of the Fomes fomentarius fraction. Nitrite is a major stable product of nitric oxide (NO), one of the inflammatory mediators, and was measured by using Griess reagent.
First, the cells were cultured at 5×10^5 cells/ml in a 6-well plate. They were treated with Fomes fomentarius extracts having various concentrations (5, 20, 50, and 100 μg/ml) and then reacted for 24 hours in the presence or absence of LPS ([…]). DMEM medium for BV2 cells and the fresh medium containing LPS (1 μg/ml) and the sample were treated at the same time and cultured for 24 hours. The amount of NO produced was determined using Griess reagent in which 100 μl of cell culture supernatant and 100 μl of Griess reagent [1% (w/v) sulfanilamide, 0.1% (w/v) naphthyl ethylenediamine in 2.5% (v/v) phosphoric acid] were mixed and reacted on a 96-well plate for 10 minutes, and then an ELISA reader was used to measure absorbance at 540 nm. Standard concentration curves were obtained by stepwise dilution of sodium nitrite (NaNO2).
For orientation: The Griess reaction detects nitrite, a stable product of nitric oxide.

The subject of experiment [4] is p38. The experiment can be described thus: Western blotting of LPS-induced p38 phosphorylation in BV2 cells. It counts as cell-based, mouse. The procedure: as §2
The subject of experiment [5] is NF-κB. As to the kind of experiment: Western blotting of LPS-induced NF-κB phosphorylation in BV2 cells. It counts as cell-based, mouse. The procedure:
as §2
In general terms: A western blot detects proteins with antibodies after separation by electrophoresis.

SMILES strings stand for the structures.

Consider `CCCCCCCC/C=C\CCCCCCCCCCCCO` [docosenol, cis-13-Docosenol], for which the TNF-α level in experiment [1] (5 μg/ml) was determined as 60.12±7.4; in experiment [1] (20 μg/ml), 40.58±6.2; in experiment [1] (50 μg/ml), 28.15±4.1; in experiment [1] (100 μg/ml), 22.87±5.6. In addition, the “DPPH radical scavenging activity (% antioxidant activity)” value in experiment [2] (10 μg/mL) was found to be 1.3±0.4%; in experiment [2] (20 μg/mL), 2.6±0.2%; in experiment [2] (40 μg/mL), 5.8±0.6%; in experiment [2] (80 μg/mL) it was 7.7±0.6%; in experiment [2] (160 μg/mL), 6.6±0.7%; in experiment [2] (320 μg/mL), 8.8±1.1%. Moreover, in experiment [2] (640 μg/mL), the “DPPH radical scavenging activity (% antioxidant activity)” value stood at 10.6±0.9%. The “NO production (nitrite)” value in experiment [3] (5 μg/ml) amounted to 8.04±0.55; in experiment [3] (20 μg/ml), 5.56±0.61; in experiment [3] (50 μg/ml), 4.42±0.48; in experiment [3] (100 μg/ml), 2.76±40.59. The “p-p38/p-38 ratio (%), expression ratio (vehicle 100%)” value in experiment [4] (5 μg/ml) is “about 69%”; in experiment [4] (20 μg/ml), “about 48%”; in experiment [4] (50 μg/ml), “about 36%”; in experiment [4] (100 μg/ml), “about 25%”. Also, the “p-NF-κB/NF-κB ratio (%), expression ratio (vehicle 100%)” value is given as “about 41%” in experiment [5] (5 μg/ml), “about 28%” in experiment [5] (20 μg/ml) and “about 8%” in experiment [5] (50 μg/ml).
For `CCCCCCCCCCCCCCCCCC(C)=O` [nonadecanone, 2-Nonadecanone], the TNF-α level in experiment [1] (5 μg/ml) is listed as 79.12±4.1; in experiment [1] (20 μg/ml), 70.24±5.0; in experiment [1] (50 μg/ml), 59.56±6.2; in experiment [1] (100 μg/ml), 50.47±3.1. Besides, the “DPPH radical scavenging activity (% antioxidant activity)” value in experiment [2] (10 μg/mL) is 5.6±0.9%; in experiment [2] (20 μg/mL), 8.9±0.8%; in experiment [2] (40 μg/mL), 11.6±1.1%; in experiment [2] (80 μg/mL), 13.5±1.4%; in experiment [2] (160 μg/mL), 14.6±1.0%; in experiment [2] (320 μg/mL), 16.8±2.1%. Also, in experiment [2] (640 μg/mL), the “DPPH radical scavenging activity (% antioxidant activity)” value is 20.5±1.8%. Further, the “NO production (nitrite)” value is given as 2.98±0.78 in experiment [3] (5 μg/ml), 2.35±0.68 in experiment [3] (20 μg/ml), 1.99±0.39 in experiment [3] (50 μg/ml) and 1.62±0.41 in experiment [3] (100 μg/ml). Besides, the “p-p38/p-38 ratio (%), expression ratio (vehicle 100%)” value in experiment [4] (5 μg/ml) is “about 75%”; in experiment [4] (20 μg/ml), “about 54%”; in experiment [4] (50 μg/ml), “about 42%”; in experiment [4] (100 μg/ml), “about 29%”. The “p-NF-κB/NF-κB ratio (%), expression ratio (vehicle 100%)” value is on record as “about 35%” in experiment [5] (5 μg/ml), “about 21%” in experiment [5] (20 μg/ml), “about 15%” in experiment [5] (50 μg/ml) and “about 12%” in experiment [5] (100 μg/ml).
